Data published in patent US9045442B2, “Antibacterial compounds and methods of using same” (University of Notre Dame du Lac, priority 2007, dated 2015).

What was measured:
[1] = test system: S. aureus VAN1; experiment: minimum inhibitory concentration (MIC) against S. aureus VAN1; assay type: cell-based, Staphylococcus aureus
Excerpt: (§1) In embodiments, the antibacterials of this invention may have useful activity against a variety of organisms. The in vitro activity of compounds of this invention may be assessed by standard testing procedures such as the determination of minimum inhibitory concentration (MIC) by agar dilution.
(§2) Compound A was broken down into smaller structural components and each fraction tested to understand the impact of certain components on the antibacterial properties of the compounds. Based on the understanding of compound A, the compounds (compounds 1 and 2) shown below, were tested further. […] A minimum inhibitory concentration is the lowest concentration of an antimicrobial that will inhibit the visible growth of a microorganism after overnight incubation.
(§3) In accordance with embodiments of the present invention, a variety of compounds have been prepared and tested, as indicated, in part, by the description above. The tables below provide minimum inhibitory concentration data for the identified compounds tested against various bacterial strains.

[2] = test system: E. faecalis 99; experiment: minimum inhibitory concentration (MIC) against E. faecalis 99; assay type: cell-based
Excerpt: as §1, §2, §3
(§4) Table 1 lists the active compounds and the activity of those compounds for a limited quantity of bacteria. Blank spaces indicate low or no activity.

[3] = test system: strains of Entercoccus; experiment: activity (minimum inhibitory concentration testing) against strains of Entercoccus; assay type: cell-based; settings: result in words; for activity as measured by minimum inhibitory concentration testing against several strains of Entercoccus: FIG. 1
Procedure: (§5) In an embodiment, an initial antibacterial compound was provided and tested. Such compound is identified below as compound A. Compound A (below) is an inhibitor of gram positive bacteria.
as §2

[4] = test system: E. faecalis 29212; experiment: minimum inhibitory concentration (MIC) against E. faecalis 29212; assay type: cell-based; parameters: minimum inhibitory concentration, E. faecalis 29212: unit not given here
Excerpt: as §1, §2, §3, §4

[5] = test system: S. aureus ATCC 29213; experiment: minimum inhibitory concentration (MIC) against S. aureus ATCC 29213; assay type: cell-based, Staphylococcus aureus
Excerpt: as §1, §2, §3, §4

[6] = test system: E. faecium 119-39A; experiment: minimum inhibitory concentration (MIC) against E. faecium 119-39A; assay type: cell-based
Excerpt: as §1, §2, §3

[7] = test system: E. faecium 106; experiment: minimum inhibitory concentration (MIC) against E. faecium 106; assay type: cell-based
Excerpt: as §1, §2, §3

[8] = test system: S. aureus NRS100 (COL); experiment: minimum inhibitory concentration (MIC) against S. aureus NRS100 (COL); assay type: cell-based, Staphylococcus aureus
Excerpt: as §1, §2, §3

[9] = test system: E. faecal 201; experiment: minimum inhibitory concentration (MIC) against E. faecal 201; assay type: cell-based, E. faecalis
Excerpt: as §1, §2, §3, §4

[10] = test system: S. aureus VAN2; experiment: minimum inhibitory concentration (MIC) against S. aureus VAN2; assay type: cell-based, Staphylococcus aureus
Excerpt: as §1, §2, §3

[11] = test system: several strains of Staphylococcus aureus; experiment: activity (minimum inhibitory concentration testing) against several strains of Staphylococcus aureus; assay type: cell-based; settings: FIG. 1, result in words
Procedure: as §2

[12] = test system: gram positive bacteria; experiment: inhibition of gram positive bacteria; assay type: cell-based; settings: result in words
Excerpt: as §5

| Structure (SMILES) | minimum inhibitory concentration, E. faecalis 29212 [4] | minimum inhibitory concentration, E. faecal 201 [9] | further results |
| --- | --- | --- | --- |
| Oc1ccc(-c2nc(-c3ccc(Oc4ccc(C(F)(F)F)cc4)cc3)no2)cc1 [Compound 1, 4-(3-(4-(4-(trifluoromethyl)phenoxy)phenyl)-1,2,4-oxadiazol-5-yl)phenol] | 2 | 2 | minimum inhibitory concentration, S. aureus VAN1 [1]: 2; minimum inhibitory concentration, E. faecal 99 BH [2]: 8; minimum inhibitory concentration, E. faecalis 99 [2]: 2; activity as measured by minimum inhibitory concentration testing against several strains of Entercoccus [3]: good activity; minimum inhibitory concentration, E. faecalis 29212 BH [4]: 16; minimum inhibitory concentration, S. aureus ATCC 29213 [5]: 2; minimum inhibitory concentration, E. faecium 119-39A [6]: 2; minimum inhibitory concentration, E. faecium 119-39A BH ([6]; E. faecium 119-39A BH): 8; minimum inhibitory concentration, E. faecium 106 [7]: 2; minimum inhibitory concentration, E. faecium 106 BH ([7]; E. faecium 106 BH): 4; minimum inhibitory concentration, S. aureus NRS100 (COL) [8]: 2; minimum inhibitory concentration, E. faecal 201 BH [9]: 16; minimum inhibitory concentration, S. aureus VAN2 [10]: 2; activity as measured by minimum inhibitory concentration testing against several strains of Staphylococcus aureus [11]: good activity |
| Oc1ccc(-c2nc(-c3ccc(Oc4ccccc4)cc3)no2)cc1 [Compound 2, 4-(3-(4-phenoxyphenyl)-1,2,4-oxadiazol-5-yl)phenol] | 4 | 4 | minimum inhibitory concentration, S. aureus VAN1 [1]: 2; minimum inhibitory concentration, E. faecalis 99 [2]: 4; activity as measured by minimum inhibitory concentration testing against several strains of Entercoccus [3]: good activity; minimum inhibitory concentration, S. aureus ATCC 29213 [5]: 2; minimum inhibitory concentration, E. faecium 119-39A [6]: 4; minimum inhibitory concentration, E. faecium 106 [7]: 4; minimum inhibitory concentration, S. aureus NRS100 (COL) [8]: 2; minimum inhibitory concentration, S. aureus VAN2 [10]: 2; activity as measured by minimum inhibitory concentration testing against several strains of Staphylococcus aureus [11]: good activity |
| CC(=O)O/N=C(\N)c1ccc(Oc2ccc(C(F)(F)F)cc2)cc1 [Compound 7] | 32 | 128 | minimum inhibitory concentration, E. faecal 99 BH [2]: 512 |
| N/C(=N\OC(=O)c1ccc([N+](=O)[O-])cc1)c1ccc(Oc2ccc(C(F)(F)F)cc2)cc1 [Compound 14, (Z)-4-(4-(trifluoromethyl)phenoxy)-O-(4-nitrobenzoyl)benzamidoxime] | 128 | 32 | – |
| O=[N+]([O-])c1ccc(-c2nc(-c3ccc(Oc4ccc(C(F)(F)F)cc4)cc3)no2)cc1 [Compound 15] | 8 | 128 | – |
| Fc1ccc(-c2nc(-c3ccccc3)no2)cc1 [Compound 19, 5-(4-fluorophenyl)-3-phenyl-1,2,4-oxadiazole] | 64 | 128 | – |
| COc1ccc(/C(N)=N/OC(=O)c2ccc(F)cc2)cc1 [Compound 25, 4-fluorobenzoyl-O-4-methoxybenzamidoxime] | 256 | 256 | – |
| COc1ccc(-c2noc(-c3ccc(F)cc3)n2)cc1 [Compound 26, 5-(4-fluorophenyl)-3-(4-methoxyphenyl)-1,2,4-oxadiazole] | 64 | 128 | – |
| COc1ccc(-c2noc(-c3ccc(OCc4ccccc4)cc3)n2)cc1 [Compound 27, 5-(4-(benzyloxy)phenyl)-3-(4-methoxyphenyl)-1,2,4-oxadiazole] | – | 256 | – |
| COc1ccc(-c2noc(-c3ccc(O)cc3)n2)cc1 [Compound 28, 4-(3-(4-methoxyphenyl)-1,2,4-oxadiazol-5-yl)phenol] | – | 64 | minimum inhibitory concentration, S. aureus ATCC 29213 [5]: 32 |
| N/C(=N\OC(=O)c1ccc(F)cc1)c1ccc(Oc2ccccc2)cc1 [Compound 29, (Z)-4-(phenoxy)-O-(4-fluorobenzoyl)benzamidoxime] | 64 | 128 | – |
| Oc1ccc(Oc2ccc(-c3noc(-c4ccc(F)cc4)n3)cc2)cc1 [Compound 36, 4-(4-(5-(4-fluorophenyl)-1,2,4-oxadiazol-3-yl)phenoxy)phenol] | 64 | 32 | – |
| O=P(O)(O)Oc1ccc(Oc2ccc(-c3noc(-c4ccc(F)cc4)n3)cc2)cc1 [Compound 37, 4-(4-(5-(4-fluorophenyl)-1,2,4-oxadiazol-3-yl)phenoxy)phenyl dihydrogen phosphate] | 500 | 32 | minimum inhibitory concentration, E. faecal 99 BH [2]: 500; minimum inhibitory concentration, E. faecalis 29212 BH [4]: 128; minimum inhibitory concentration, E. faecal 201 BH [9]: 500 |
| c1ccc(COc2ccc(-c3nc(-c4ccc(Oc5cnccn5)cc4)no3)cc2)cc1 [Compound 40, 2-(4-(5-(4-(benzyloxy)phenyl)-1,2,4-oxadiazol-3-yl)phenoxy)pyrazine] | – | 64 | – |
| c1ccc(COc2ccc(-c3nc(-c4ccc(Oc5ccccn5)cc4)no3)cc2)cc1 [Compound 43, 2-(4-(5-(4-(benzyloxy)phenyl)-1,2,4-oxadiazol-3-yl)phenoxy)pyridine] | – | 64 | – |
| Oc1ccc(-c2nc(-c3ccc(Oc4ccccn4)cc3)no2)cc1 [Compound 44, 4-(3-(4-(pyridin-2-yloxy)phenyl)-1,2,4-oxadiazol-5-yl)phenol] | – | 32 | – |
| c1ccc(COc2ccc(-c3nc(-c4ccc(Oc5cccnc5)cc4)no3)cc2)cc1 [Compound 47, 3-(4-(5-(4-(benzyloxy)phenyl)-1,2,4-oxadiazol-3-yl)phenoxy)pyridine] | – | 32 | – |
| Oc1ccc(-c2nc(-c3ccc(Oc4cccnc4)cc3)no2)cc1 [Compound 48, 4-(3-(4-(pyridin-3-yloxy)phenyl)-1,2,4-oxadiazol-5-yl)phenol] | – | 32 | – |
| c1ccc(COc2ccc(-c3nc(-c4ccc(Oc5ccncc5)cc4)no3)cc2)cc1 [Compound 51, 4-(4-(5-(4-(benzyloxy)phenyl)-1,2,4-oxadiazol-3-yl)phenoxy)pyridine] | – | 64 | – |
| Oc1ccc(-c2nc(-c3ccc(Oc4ccncc4)cc3)no2)cc1 [Compound 52, 4-(3-(4-(pyridin-4-yloxy)phenyl)-1,2,4-oxadiazol-5-yl)phenol] | – | 32 | – |
| Fc1ccc(-c2nc(-c3ccc(Oc4ccc(C(F)(F)F)cc4)cc3)no2)cc1 [Compound A, 5-(4-fluorophenyl)-3-(4-(4-(trifluoromethyl)phenoxy)phenyl)-1,2,4-oxadiazole] | 125 | 128 | activity against some strains of Entercoccus ([3]; some strains of Entercoccus): shows activity; inhibition of gram positive bacteria [12]: inhibitor |
